Values joined by “and” are separate entries in the source; they are usually repeats but may differ in a detail not shown here. Identical values can stand only once. Like-named read-outs stand apart in the source and are kept apart here. Marks after values point to notes of the source that are not given here.
Assays:
[1] = cited from earlier work
[2] = Plasma pharmacokinetics in mice; conditions: male CD-1 nude mice, single i.p. dose at 75% of MTD
[3] = system: HT29 cells; conditions: HT29 cell suspensions, mean ± SEM
[4] = system: HT29 cells; assay: Oxygen dependence of cytotoxicity and metabolism in stirred cell suspensions; assay type: cell-based, human; conditions: mean ± SEM
[5] = system: HT29, SiHa and H460 xenografts; assay: Excision; assay type: in vivo, CD-1 nude mice; conditions: three xenograft models, 75% of MTD
[6] = Animal toxicity: maximum tolerated dose in mice; assay type: in vivo
[7] = system: HT29 MCL; assay: Diffusion in multicellular layers; conditions: higher than TPZ
[8] = Animal toxicity: maximum tolerated dose in rats; assay type: in vivo
[9] = cited from earlier work; remark: listed apart in the source
[10] = cited from earlier work; remark: listed apart in the source
[11] = system: HT29 MCL
[12] = cited from earlier work; remark: listed apart in the source
[13] = Mouse plasma protein binding; assay type: in vitro ADME; conditions: mean ± SEM
[14] = system: HT29 cells; assay: Clonogenic cell killing in stirred single cell suspensions; assay type: cell-based, human; conditions: anoxia, mean ± SEM
[15] = system: SiHa xenografts; assay: SiHa xenograft tumor regrowth assay with fractionated radiation; assay type: in vivo, CD-1 nude mice; conditions: for Radiation-induced tumor regrowth delay: 30 min before each of 2 Gy × 8
[16] = system: 8 human tumor cell lines; assay: In vitro growth inhibition; assay type: cell-based; conditions: 8 cell lines
[17] = mouse, in vivo
[18] = mouse; cited from earlier work
[19] = system: HT29 cells; conditions: cited from earlier work

[O-][n+]1nc(CCCN2CCOCC2)[n+]([O-])c2cc3c(cc21)CCC3 [SN30000]
E(1) One electron reduction potential [1]: −399 ± 8 ^c mV | One-electron reduction potential difference (higher than TPZ) [1]: 57 mV | AUCp∞, area under the plasma (total drug) concentration-time curve extrapolated to infinity in mice [2]: 79 µM·h | t½, plasma terminal half life in mice [2]: 32 min and 32.1 min | kmet0, first order rate constant for prodrug metabolism under anoxia [3]: 1.53 ± 0.21 min^−1 and 1.53 ± 0.21 (8) min^−1 | KO2, O2 concentration to halve anoxic cytotoxic potency [4]: 1.14 ± 0.24 µM | Therapeutic gain over TPZ with single dose radiation [5]: ~3 fold | MTD for bi-daily dosing for 4 consecutive days (BID1-4) ([6]; i.p., 9 am and 3 pm, 4 consecutive days, CD-1 nude mice): 237 µmol/kg | Maximum tolerated dose (MTD) ([6]; single i.p. administration, male CD-1 nude mice): 275 mg/kg | MTD (molar dose) relative to TPZ ([6]; single i.p., male CD-1 nude mice, higher than TPZ): 4.2 fold | DMCL relative to TPZ [7]: 3 fold | MTD ([8]; Sprague-Dawley rats, both sexes, single i.p. dose): 316 µmol/kg | Log P, pH 7.4 (octanol:water partition coefficient) [9]: 0.50 ± 0.05 ^c | Calculated amine pKa [10]: 7.1 ^c | D, diffusion coefficient in HT29 MCLs and tumors [11]: 1.26 ± 0.11 (6) ×10^−6 cm^2s^−1 | Solubility in culture medium at 37°C [12]: 48.5 ^c mM | θ, free fraction of drug in plasma in mice [13]: 83 ± 1% | γ, proportionality constant in PD model (anoxic clonogenic potency coefficient) [14]: 5.34 ± 0.89 (13) ×10^−5 µM^−2 | Radiation-induced tumor regrowth delay ([15]; 176 µmol/kg/dose, p=0.0058 log rank test): highly significant increases | Activity of drug alone in tumor regrowth assay ([15]; 263 µmol/kg/dose, 8-dose schedule, without radiation): not significantly active | Radiation-induced tumor regrowth delay ([15]; 263 µmol/kg/dose, p=0.0004 log rank test): highly significant increases | HCR (aerobic IC50 / anoxic IC50) compared across compounds [16]: consistently higher | Potency under anoxia (hypoxic IC50) compared with TPZ ([16]; 4 h exposure, anoxia): consistently more potent than TPZ | i.p. bioavailability [17]: 77%

Nc1n[n+]([O-])c2ccccc2[n+]1[O-] [TPZ, tirapazamine, reference compound]
E(1) One electron reduction potential [1]: −456 ± 8 ^a mV | θ, free fraction of drug in plasma in mice [18]: 100 ± 5.3 ^f % | MTD at 4 days ([6]; CD-1 nu/nu, mouse, in vivo, ip): 75 µmol/kg | MTD at 28 days ([6]; male, CD-1 nu/nu, mouse, in vivo, ip): 178 µmol/kg | MTD at 28 days ([8]; both, Sprague-Dawley, rat, in vivo, ip): 178 µmol/kg | Log P, pH 7.4 (octanol:water partition coefficient) [9]: −0.34 ± 0.02 ^a | D, diffusion coefficient in HT29 MCLs and tumors ([11]; human): 0.40 ± 0.02 (12) ×10^−6 cm^2s^−1 | γ, proportionality constant in PD model (anoxic clonogenic potency coefficient) [14]: 2.41± 0.13 (72) ×10^−5 µM^−2 | KO2, O2 concentration to halve anoxic cytotoxic potency [19]: 1.21 ± 0.09 ^d µM

From article PMC3390971 (Clinical Cancer Research, 2010)
